Data taken from patent publication US10179761B2, “Compounds, pharmaceutical composition and their use in treating neurodegenerative diseases” (UNIVERSITE DE LILLE 2 DROIT ET SANTE, priority 2014, dated 2019).
Entries after “also recorded” stand apart in the source; their conditions may differ.

Columns and labels:
Type in all cases: in vivo
SJL/J mice = assay: EAE model, curative treatment; details: p.o. from onset of EAE (grade 2) for 14 days, 0.5 or 1 mg/kg; followed 70 days; FIG. 4
Excerpt: Animals. SJL/J mice were purchased from Janvier (Le Genest-St-Isle, France) and bred under conventional barrier protection at the Pasteur Institute (Lille, France). All experiment protocols and procedures were in compliance with the European Communities Council Directives of 24 Nov. 1986 (86/609/EEC) and were approved by the local ethical committee (CEEA 102009R). Efforts were made to minimize the number of animals used and their suffering. Animals that reached severe hind limb paresis (clinical grade 3) were isolated, and hydration and food access were facilitated.
EAE induction and treatment. The method of EAE induction was similar to previously published methods (Lee-Chang et al., Immunol Lett. 2011 Mar. 30; 135(1-2):108-17). […]
Body weight and clinical signs of EAE were monitored daily. The severity of clinical symptoms was scored based on a standard neurological scoring system for EAE, as follows: grade 0, no disease; grade 1, moderate tail hypotonia and/or slight clumsy gait; grade 2, tail atony and/or clumsy gait; grade 3, severe hind limb paresis; grade 4, paraplegia; grade 5, tetraplegia. […]

Male Swiss mice [1] = assay: Dizocilpine-induced learning deficits: spontaneous alternation in the Y-maze
Protocol: (§1) The activity of compound 3.1.10 was evaluated on the prevention of the dizocilpine-induced learning deficits measured using two behavioral tests. The present experiment tested if its anti-amnesic activity could be blocked by pretreatment with the reference sigma-1 receptor antagonist NE-100.
(§2) • Sixty (60) mice were used. Behavioral testing started one week after the arrival of the animals in the AMYLGEN animal facility. • 5 treatment groups were designed and used as follows:
(§3) • Vehicle 1 was physiological saline for dizocilpine, DMSO 2% in water for compound 3.1.10 • Animals were used at day 1 in the Y-maze test and at days 2 and 3 in the passive avoidance test, with training at day 2 and retention at day 3. • Test compounds, compound 3.1.10 and/or NE-100 were administered 10 min before dizocilpine (at 0.15 mg/kg i.p.) or vehicle. • Dizocilpine or vehicle 1 was administered 20 min before the Y-maze test session on day 1. • Dizocilpine or vehicle 1 was administered 20 min before the passive avoidance training session on day 2. Drugs were not injected before the retention session on day 3. • The whole experiment program was performed in a single serie experiment. • Treatments were randomized. 2.1.2. Animals
Male Swiss mice, 6 weeks old and weighing 30-35 g, from JANVIER (Saint Berthevin, France), were housed in groups with access to food and water ad libitum, except during experiments. They were kept in a temperature and humidity controlled animal facility on a 12 h/12 h light:dark cycle (lights on at 7:00 am). […]
Animals were tested for spontaneous alternation performance in the Y-maze, an index of spatial working memory. […] The number of maximum alternations was therefore the total number of arm entries minus two and the percentage of alternation was calculated as: (actual alternations/maximum alternations)×100. […]
All values, except passive avoidance latencies, were expressed as mean±S.E.M. Statistical analyses were performed using two-way ANOVA (F value), with genotype and peptide treatment as independent factors, followed by a Dunn's post-hoc multiple comparison test.

Male Swiss mice [2] = assay: Dizocilpine-induced learning deficits: step-through passive avoidance test
Protocol: as §1, §2, §3
Male Swiss mice, 6 weeks old and weighing 30-35 g, from JANVIER (Saint Berthevin, France), were housed in groups with access to food and water ad libitum, except during experiments. […]
The apparatus is a two-compartments (15×20×15 cm high) box with one illuminated with white polyvinylchloride walls and the other darkened with black polyvinylchloride walls and a grid floor. […] The step-through latency (the latency spent to enter the dark compartment) and the number of vocalizations was recorded. […] The step-through latency was recorded up to 300 s. When the mouse entered the dark compartment or 300 s has elapsed (they were therefore manually placed in it), the escape latency (latency to exit from the dark compartment) was recorded up to 300 s.
They were therefore analyzed using a Kruskal-Wallis non-parametric ANOVA (H value), followed by a Dunn's multiple comparison test.

[3] = 0.5 mg/kg i.p., 10 min before dizocilpine 0.15 mg/kg i.p.
[4] = 3.1.10 0.5 mg/kg + NE-100 3 mg/kg + dizocilpine 0.15 mg/kg i.p.

CN(CCCNC(=O)c1ccc(Cl)cc1)Cc1ccccc1 [Compound 3.1.10, N-[3-(benzylmethylamino)propyl]-4-chlorobenzamide]
EAE clinical course, curative treatment (SJL/J mice): Amelioration of EAE; also recorded: alleviating the symptoms of EAE
dizocilpine-induced learning deficits, Y-maze test (Male Swiss mice [1]; [3]): significantly attenuated
beneficial effect of compound 3.1.10 with NE-100, Y-maze test (Male Swiss mice [1]; [4]): prevented by treatment with the sigma-1 antagonist NE-100
dizocilpine-induced learning deficits, passive avoidance test (Male Swiss mice [2]; [3]): significantly attenuated
beneficial effect of compound 3.1.10 with NE-100, passive avoidance test (Male Swiss mice [2]; [4]): prevented by treatment with the sigma-1 antagonist NE-100
